This is an account of results in article PMC2762271 (Journal of medicinal chemistry, 2009).

One experiment relates to tubulin. Nature of the experiment: Inhibition of tubulin polymerization. Type of experiment: biochemical. To be noted: for fold less active than 5t as inhibitor of tubulin assembly: relative to 5t.
In experiment [1] the test system is L1210, FM3A, Molt4, CEM, and HeLa cell lines. Briefly: Antiproliferative activity, panel of five tumor cell lines. Type of experiment: cell-based. To be noted: on average over the cell lines.
Another experiment relates to L1210. Nature of the experiment: Antiproliferative activity, L1210 cell line. It counts as cell-based. To be noted: Mus musculus, L1210, read-out: IC50 L1210.

The IC50 is the point on the concentration scale where inhibition reaches its midpoint.

On to `Nc1nc(Nc2ccccc2)sc1C(=O)c1ccccc1` [5a], for which the “fold less active than 5t as inhibitor of tubulin assembly” value with tubulin is 5 fold. The same measure, in the same setting: for `COc1cccc(Nc2nc(N)c(C(=O)c3ccccc3)s2)c1` [5f] the value was 10 fold. For the compound `COc1cc(C(=O)c2sc(Nc3ccc(F)cc3)nc2N)cc(OC)c1OC` [5r], the “average fold reduction of potency relative to 5q (cell growth inhibition)” value in experiment [1] is reported as 27 fold. The same measure, in the same setting: for `COc1cc(C(=O)c2sc(Nc3ccc(Cl)cc3)nc2N)cc(OC)c1OC` [5s] the value was 27 fold. Regarding `COc1cc(C(=O)c2sc(Nc3ccc(C)cc3)nc2N)cc(OC)c1OC` [5t], the “times more potent than 4a (tubulin assembly)” value in the experiment with tubulin (relative to 4a) is on record as 5 times. In addition, the “times more potent than CA-4 (tubulin assembly)” value with tubulin (relative to CA-4) stood at 2 times. Take `COc1ccc(Nc2nc(N)c(C(=O)c3cc(OC)c(OC)c(OC)c3)s2)cc1` [5u]: the “average fold reduction of potency relative to 5q (cell growth inhibition)” value in experiment [1] worked out at 83 fold. With `COc1ccc(/C=C\c2cc(OC)c(OC)c(OC)c2)cc1O` [CA-4, combretastatin A-4], in the experiment on L1210, the concentration for half-maximal inhibition (IC50) stood at 2.8 ± 1.1 nM.
